In US20130344139A1, “METHOD OF REDUCING CONTACT LENS INTOLERANCE WITH NON-DRYING ANTIHISTAMINES” (priority 2005, published 2013):
Each block holds one compound with its values, some of them ahead of it.

Tests used:
human subjects = assay: Ocular drying effect of topical epinastine and systemic loratadine, crossover study (fluorophotometry, staining, TFBUT); conditions: after 4 days of treatment
healthy individuals = conditions: systemic antihistamines; increased corneal and conjunctival staining, decreased TFBUT, increased ocular discomfort; cited from earlier work
[1] = tested on: muscarinic receptors (M1-M5); assay: Muscarinic receptor signaling, statements for M1-M5 together; conditions: for inhibition of muscarinic receptor signaling (in words): stimulation with 500 nM acetylcholine; for IC50 at muscarinic receptors (in words): lack of anticholinergic properties
Source text: (§1) C6 rat glioma and CHO-K1 (Chinese hamster ovary) cells were obtained from the American Type Culture Collection (ATCC, Manassas, Va.). […] Recombinant cell lines stably expressing independently each of the five human muscarinic receptors (M1, M2, M3, M4 or M5) were established by transfecting C6 rat glioma cells with the plasmid pcDNA3.1(+) containing the DNA sequence encoding the muscarinic receptor subtypes. Moreover, two of the muscarinic receptor subtypes (M2 and M4) that signal through the Gαi protein were expressed in C6 cells that also expressed a functional chimeric Gq/i protein allowing these receptors to signal via calcium mobilization.

[2] = biological target: T1, human muscarinic receptor M4 (Homo sapiens, UniProt P08173); assay: Muscarinic receptor potency, C6 cells expressing recombinant M4 (chimeric Gq/i)
T1 sequence (P08173 1-479): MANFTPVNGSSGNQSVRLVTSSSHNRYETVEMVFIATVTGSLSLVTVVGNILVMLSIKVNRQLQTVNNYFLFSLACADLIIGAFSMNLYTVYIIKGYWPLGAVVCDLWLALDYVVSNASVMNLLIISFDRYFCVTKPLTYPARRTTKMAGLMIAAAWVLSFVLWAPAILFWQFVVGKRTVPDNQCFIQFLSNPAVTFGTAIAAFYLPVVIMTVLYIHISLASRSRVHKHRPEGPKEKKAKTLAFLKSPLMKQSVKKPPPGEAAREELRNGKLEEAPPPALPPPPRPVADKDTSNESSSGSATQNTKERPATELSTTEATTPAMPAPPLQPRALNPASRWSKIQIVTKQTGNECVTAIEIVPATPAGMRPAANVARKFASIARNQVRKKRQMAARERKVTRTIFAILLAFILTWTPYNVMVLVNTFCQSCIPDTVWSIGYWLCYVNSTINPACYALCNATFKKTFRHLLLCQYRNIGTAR
Source text: as §1

[3] = biological target: T2, human muscarinic receptor M1 (Homo sapiens, UniProt P11229); assay: cell-based
T2 sequence (P11229 1-460): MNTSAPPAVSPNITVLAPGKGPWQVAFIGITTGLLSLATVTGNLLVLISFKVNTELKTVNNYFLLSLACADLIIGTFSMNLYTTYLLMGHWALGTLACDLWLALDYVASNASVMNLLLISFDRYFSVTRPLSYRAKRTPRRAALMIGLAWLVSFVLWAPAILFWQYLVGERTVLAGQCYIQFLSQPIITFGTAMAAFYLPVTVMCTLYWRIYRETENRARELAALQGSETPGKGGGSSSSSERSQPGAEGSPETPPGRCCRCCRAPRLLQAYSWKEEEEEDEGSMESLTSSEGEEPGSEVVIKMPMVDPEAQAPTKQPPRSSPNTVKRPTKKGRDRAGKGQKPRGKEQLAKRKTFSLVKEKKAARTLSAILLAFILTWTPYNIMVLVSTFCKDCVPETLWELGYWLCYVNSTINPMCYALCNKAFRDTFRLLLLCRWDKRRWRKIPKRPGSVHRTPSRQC
Source text: as §1

[4] = biological target: human muscarinic receptor M3 (Homo sapiens, UniProt P20309); assay: Muscarinic receptor potency, C6 cells expressing recombinant M3
Source text: as §1

[5] = biological target: T3, human muscarinic receptor M2 (Homo sapiens, UniProt P08172); assay: Muscarinic receptor potency, C6 cells expressing recombinant M2 (chimeric Gq/i)
T3 sequence (P08172 1-466): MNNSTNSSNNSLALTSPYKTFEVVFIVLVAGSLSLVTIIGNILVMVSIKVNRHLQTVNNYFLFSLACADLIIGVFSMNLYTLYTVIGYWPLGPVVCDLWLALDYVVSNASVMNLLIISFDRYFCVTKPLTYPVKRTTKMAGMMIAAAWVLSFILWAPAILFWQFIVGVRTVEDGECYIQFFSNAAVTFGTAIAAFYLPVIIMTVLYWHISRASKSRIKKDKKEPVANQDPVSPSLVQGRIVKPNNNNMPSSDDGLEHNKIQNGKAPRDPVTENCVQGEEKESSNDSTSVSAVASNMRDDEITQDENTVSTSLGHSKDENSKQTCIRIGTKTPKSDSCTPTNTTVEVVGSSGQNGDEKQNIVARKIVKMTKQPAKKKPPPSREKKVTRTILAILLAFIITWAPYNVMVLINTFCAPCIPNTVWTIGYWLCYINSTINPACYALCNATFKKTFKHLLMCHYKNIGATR
Source text: as §1

[6] = biological target: T4, human muscarinic receptor M5 (Homo sapiens, UniProt P08912); assay: Muscarinic receptor potency, C6 cells expressing recombinant M5
T4 sequence (P08912 1-532): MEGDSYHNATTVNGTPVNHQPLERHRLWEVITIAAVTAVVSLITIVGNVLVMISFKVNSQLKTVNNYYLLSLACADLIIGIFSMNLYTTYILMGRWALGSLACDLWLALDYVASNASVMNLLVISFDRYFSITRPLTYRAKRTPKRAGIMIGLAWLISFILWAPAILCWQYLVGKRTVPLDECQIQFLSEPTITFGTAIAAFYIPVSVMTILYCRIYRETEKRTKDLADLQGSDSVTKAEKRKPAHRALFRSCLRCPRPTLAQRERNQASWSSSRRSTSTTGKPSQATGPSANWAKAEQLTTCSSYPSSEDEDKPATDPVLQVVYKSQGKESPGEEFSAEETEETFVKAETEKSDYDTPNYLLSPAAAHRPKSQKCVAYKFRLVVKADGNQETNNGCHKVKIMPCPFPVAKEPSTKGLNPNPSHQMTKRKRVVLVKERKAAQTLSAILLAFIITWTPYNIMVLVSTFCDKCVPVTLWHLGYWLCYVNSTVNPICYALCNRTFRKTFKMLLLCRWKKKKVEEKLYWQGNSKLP
Source text: as §1

[7] = biological target: endogenous M3 receptor (1321N1) (Homo sapiens, UniProt P20309)
C57BL6 mice = assay: Effect of topical epinastine and olopatadine on tear volume in mice (phenol red cotton thread); format: in vivo, mouse; conditions: for tear volume compared with untreated group: olopatadine: 15 min and 45 min (P<0.05); for overall effect on tear volume / tear secretion (conclusion): topical, mice
Experimental: After two and four days of treatment, tear volume measurements were made with a phenol red impregnated cotton thread (Zone-Quick, Menicon, San Mateo, Calif.) 15, 45, 90, 120 and 240 min after the last instillation of the drug. A baseline tear measurement was performed before initiation of drug therapy. The untreated group had tear volume measurements done at the same time points. The length of tear wetting on the cotton thread was measured with a Nikon SMZ1500 microscope using MetaVue© software. A standard curve of cotton thread uptake was made using a glass micropipette with a known volume of a basic solution. Mouse tear volumes were calculated using regression analysis calculated by Microsoft® Excel. ANOVA with Tukey's Multiple Comparison Test was used for statistical analysis using GraphPad Prism® software.

[8] = tested on: contact lens-wearing subjects; assay: Effect of topical epinastine on contact lens-wearing, contact lens intolerant subjects; format: in vivo
Source text: This was a multi-center, open-label, randomized study that compared (a) epinastine 0.05% ophthalmic solution (ELESTAT®, Inspire Pharmaceuticals, Inc., Durham, N.C.) plus rewetting drops (Walgreens Rewetting Drops, Walgreens, Deerfield Ill.) with (b) rewetting drops alone. The subjects wore contact lenses, but were contact lens intolerant. The study started during the spring allergy season because seasonal allergic conjunctivitis may exacerbate the symptoms of contact lens intolerance.
146 subjects had 3 clinic visits over a 2-week period. The first was the screening visit to determine eligibility. Following that, subjects completed a daily diary card to assess compliance and capture baseline values during a 5-7 day run-in period with rewetting drops. At the next visit, each subject was dispensed a new pair of contact lenses and randomly assigned to receive either (a) epinastine 0.05% ophthalmic solution BID (twice a day) plus rewetting drops (75 subjects), or (b) rewetting drops only as needed, but at least twice a day (71 subjects), for a 5-7 day treatment period. During the treatment period, subjects recorded the length of time that contact lens wear was comfortable, the total time of wear, ocular itch, overall ocular comfort, and use of rewetting drops. Subjects receiving epinastine were instructed to remove contact lenses prior to instillation, allow at least 10 minutes before reinsertion, and allow 15 minutes before administering rewetting drops. Each instillation was to occur 8-12 hours after the previous one, with the evening application coming after removal of lenses for the day. The final visit came after the 5-7 day treatment period and allowed collection of the data and unused study medication.
Ocular comfort was scored on a scale of 0-4, with 0=very comfortable, 1=somewhat comfortable, 2=mildly uncomfortable, 3=moderately uncomfortable, and 4=very uncomfortable.
Ocular itch was scored on a scale of 0-4, with 0=none, 1=mild, 2=moderate, 3=severe, and 4=extremely severe.
Baseline values presented are the average of all entries recorded during the run-in phase of the study. P values are based on an ANCOVA model that included the treatment, the site, and the baseline value. Values for Day 1 are not included in the analysis for contact lens wear time, ocular itching, ocular comfort, and rewetting drop usage because they were a mixture of run-in and treatment period values.

allergic conjunctivitis = conditions: in vivo; cited from earlier work
[9] = biological target: human histamine H1 receptor (Homo sapiens, UniProt P35367); assay: H1 receptor potency: inhibition of histamine stimulation in CHO-K1 H1 cells
Source text: as §1
Dose response curves were generated.

[10] = average during treatment period

endogenous M3 receptor (1321N1), sequence (P20309 whole entry): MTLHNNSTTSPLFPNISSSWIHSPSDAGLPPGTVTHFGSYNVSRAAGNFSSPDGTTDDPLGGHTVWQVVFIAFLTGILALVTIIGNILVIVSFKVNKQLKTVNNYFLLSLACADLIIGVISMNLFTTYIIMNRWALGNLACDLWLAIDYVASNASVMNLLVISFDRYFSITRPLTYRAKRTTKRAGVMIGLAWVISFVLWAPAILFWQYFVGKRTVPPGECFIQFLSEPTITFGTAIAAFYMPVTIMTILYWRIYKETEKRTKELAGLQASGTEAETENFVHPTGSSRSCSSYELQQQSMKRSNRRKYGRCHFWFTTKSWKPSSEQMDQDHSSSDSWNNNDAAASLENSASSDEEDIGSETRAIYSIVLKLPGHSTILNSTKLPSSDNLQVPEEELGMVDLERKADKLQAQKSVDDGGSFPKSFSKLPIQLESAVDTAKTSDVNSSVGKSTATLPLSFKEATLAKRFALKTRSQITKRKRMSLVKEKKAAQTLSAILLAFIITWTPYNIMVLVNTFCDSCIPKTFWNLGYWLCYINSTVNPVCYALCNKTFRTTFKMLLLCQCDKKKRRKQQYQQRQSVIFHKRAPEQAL
human muscarinic receptor M3, sequence (P20309 whole entry): as above
human histamine H1 receptor, sequence (P35367 whole entry): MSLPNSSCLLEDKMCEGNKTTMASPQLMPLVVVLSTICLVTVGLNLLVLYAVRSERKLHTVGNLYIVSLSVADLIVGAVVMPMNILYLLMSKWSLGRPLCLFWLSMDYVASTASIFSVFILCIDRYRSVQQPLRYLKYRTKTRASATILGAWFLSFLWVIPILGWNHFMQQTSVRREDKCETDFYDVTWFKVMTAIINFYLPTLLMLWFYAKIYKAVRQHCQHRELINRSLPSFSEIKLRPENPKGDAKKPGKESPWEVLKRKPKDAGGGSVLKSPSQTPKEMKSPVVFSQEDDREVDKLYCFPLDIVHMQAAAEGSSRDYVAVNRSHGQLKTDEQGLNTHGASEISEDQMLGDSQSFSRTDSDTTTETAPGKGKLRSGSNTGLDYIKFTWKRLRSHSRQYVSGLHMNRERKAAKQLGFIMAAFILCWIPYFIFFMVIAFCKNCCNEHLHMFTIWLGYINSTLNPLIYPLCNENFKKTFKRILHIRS

Compound: CCOC(=O)N1CCC(=C2c3ccc(Cl)cc3CCc3cccnc32)CC1 [loratadine]
corneal and conjunctival staining, increase (human subjects): 22%
mean TFBUT (tear film break-up time), decrease (human subjects): 22%
tear flow, decrease (human subjects): 35%
tear volume, decrease (human subjects): 34%
signs and symptoms associated with ocular dryness (healthy individuals): induced signs and symptoms associated with ocular dryness

Compound: CN(C)CC/C=C1/c2ccccc2COc2ccc(CC(=O)O)cc21 [olopatadine]
inhibition of muscarinic receptor signaling (in words) [1]: inhibited muscarinic receptor signaling in a dose-dependent manner
IC50 [2]: 13.1 µM
IC50 [3]: 1.74 µM
IC50 [4]: 7.98 µM
IC50 [5]: 7.67 µM
IC50 [6]: 10.7 µM
IC50 [7]: 41.9 µM
tear volume compared with untreated group (C57BL6 mice; after 2 days of treatment): untreated group also had a statistically higher tear volume than the olopatadine group
overall effect on tear volume / tear secretion (conclusion) (C57BL6 mice): significant decrease in tear volume

Compound: NC1=NCC2c3ccccc3Cc3ccccc3N12 (stereo not shown) [epinastine, 3-amino-9,13b-dihydro-1H-dibenz[c,f]-imidazo[5,1-a]azepine]
IC50 at muscarinic receptors (in words) [1]: could not be calculated
Frequency of rewetting drop use, mean change from baseline [8, 10]: −0.55
Total contact lens wear, mean change from baseline [8, 10]: 0.35 h
Comfortable contact lens wear, mean change from baseline ([8]; average during treatment period (5-7 days)): 1.33 h
average use of rewetting drops over the entire treatment period ([8]; in vivo): 2.79 uses per day
mean overall eye comfort over the entire treatment period ([8]; score 0-4 (0=very comfortable, 4=very uncomfortable)): 1.43
Overall eye comfort, mean change from baseline ([8]; score 0-4 (0=very comfortable, 4=very uncomfortable), average during treatment period): −0.48
average ocular itch score over the entire treatment period ([8]; score on a scale of 0-4): 1.11
Ocular itch, mean change from baseline ([8]; score on a scale of 0-4, average during treatment period): −0.54
average total wearing time over the treatment period ([8]; treatment period 5-7 days): 13.22 h
comfortable wear time averaged over the treatment period ([8]; treatment period 5-7 days): 9.21 h
redness and itching associated with allergic conjunctivitis (allergic conjunctivitis): reduces redness and itching
IC50 [9]: 0.019 ± 0.003 µM
mean tear volume compared with olopatadine-treated group (C57BL6 mice; after 2 days of treatment, 1 μL twice a day on ocular surface, 15, 45, 90 and 240 minutes, significant at 45 min (P<0.001)): higher mean tear volumes
tear volume compared with untreated group (C57BL6 mice; after 2 days of treatment): increased production of tears over the untreated group, but the difference was not statistically significant
tear volume compared with olopatadine (C57BL6 mice; after 4 days of treatment, significant at 45 min (p<0.05)): volumes were higher at all time points
overall effect on tear volume / tear secretion (conclusion) (C57BL6 mice): not found to inhibit tear secretion, but rather increased tear production

Compound: O=C(O)COCCN1CCN(C(c2ccccc2)c2ccc(Cl)cc2)CC1 (stereo not shown) [cetirizine]
IC50 at muscarinic receptors (in words) [1]: could not be calculated
signs and symptoms associated with ocular dryness (healthy individuals): induced signs and symptoms associated with ocular dryness

IC50 [2]: 0.561 µM
IC50 [5]: 0.209 µM
IC50 [6]: 0.138 µM
Compound: CN1CCC(=C2c3ccccc3CC(=O)c3sccc32)CC1 [ketotifen]

IC50 [2]: 8.11 µM
IC50 [4]: 16.8 µM
IC50 [6]: 3.26 µM
IC50 [7]: 10.2 µM
Compound: CN1CCCC(n2nc(Cc3ccc(Cl)cc3)c3ccccc3c2=O)CC1 (stereo not shown) [azelastine]
inhibition of muscarinic receptor signaling (in words) [1]: inhibited muscarinic receptor signaling in a dose-dependent manner

IC50 at muscarinic receptors (in words) [1]: could not be calculated
IC50 [9]: 0.165 ± 0.044 µM
Compound: CCOCCn1c(C2CCN(CCc3ccc(C(C)(C)C(=O)O)cc3)CC2)nc2ccccc21 [bilastine]
